The source made the active and inactive calls. For most assays here, no stated cut-off is given here; in the data, actives have a measured EC50 and inactives only a lower limit.
Legend:
H9c2 = assay: cells; format: functional, cell-based; conditions: Rattus norvegicus, H9c2, Myocardium;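 further: confirmatory concentration-response retest of ultra-high-throughput screening hits for modulation of myocardial damage; cell death induced by hydrogen peroxide oxidative stress; compound pretreatment for 60 min then peroxide exposure for 2 h; potency is for protecting the cells against peroxide damage rather than for killing them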
[1] = target: Luciferin 4-monooxygenase (Photinus pyralis, UniProt P08659); assay: firefly luciferase enzyme inhibitors, dose response, biochemical, luminescence (AID 1891)
Sequence of Luciferin 4-monooxygenase (P08659 whole entry): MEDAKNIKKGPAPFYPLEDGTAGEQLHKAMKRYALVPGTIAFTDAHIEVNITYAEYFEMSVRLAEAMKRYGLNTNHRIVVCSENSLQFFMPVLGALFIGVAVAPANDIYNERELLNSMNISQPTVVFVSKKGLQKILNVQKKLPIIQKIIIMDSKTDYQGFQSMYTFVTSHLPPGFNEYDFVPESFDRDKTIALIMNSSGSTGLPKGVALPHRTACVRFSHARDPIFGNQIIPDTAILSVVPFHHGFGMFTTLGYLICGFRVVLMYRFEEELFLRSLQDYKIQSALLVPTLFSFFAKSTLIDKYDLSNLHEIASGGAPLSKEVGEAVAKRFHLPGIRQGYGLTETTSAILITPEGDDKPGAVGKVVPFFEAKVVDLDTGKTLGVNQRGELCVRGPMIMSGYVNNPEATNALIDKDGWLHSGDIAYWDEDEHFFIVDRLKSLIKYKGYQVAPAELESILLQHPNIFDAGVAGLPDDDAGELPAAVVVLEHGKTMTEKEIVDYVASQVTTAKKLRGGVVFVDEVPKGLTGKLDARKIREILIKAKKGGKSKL

[2] = Luminescence Cell-Based Dose Confirmation HTS to Identify Inhibitors of Platelet Dense Granule Release. [Related pubchem assays: 1663 (Primary HTS), 1678 (Summary of Project)]; format: functional
[3] = Luminescence Cell-Based Dose Retest to Confirm Inhibitors of Cancer Stem Cells. [Related pubchem assays (depositor defined):AID2717, AID2721]; format: functional; conditions: Homo sapiens
cells [4] = format: functional, cell-based
cells [5] = format: functional, cell-based; remark: listed apart in the source
Large T antigen = Large T antigen (Simian virus 40, UniProt P03070); format: functional, Betapolyomavirus macacae;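 further: Confirmatory-stage PubChem screen for compounds that inhibit SV40 T antigen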
Sequence of Large T antigen (P03070 whole entry): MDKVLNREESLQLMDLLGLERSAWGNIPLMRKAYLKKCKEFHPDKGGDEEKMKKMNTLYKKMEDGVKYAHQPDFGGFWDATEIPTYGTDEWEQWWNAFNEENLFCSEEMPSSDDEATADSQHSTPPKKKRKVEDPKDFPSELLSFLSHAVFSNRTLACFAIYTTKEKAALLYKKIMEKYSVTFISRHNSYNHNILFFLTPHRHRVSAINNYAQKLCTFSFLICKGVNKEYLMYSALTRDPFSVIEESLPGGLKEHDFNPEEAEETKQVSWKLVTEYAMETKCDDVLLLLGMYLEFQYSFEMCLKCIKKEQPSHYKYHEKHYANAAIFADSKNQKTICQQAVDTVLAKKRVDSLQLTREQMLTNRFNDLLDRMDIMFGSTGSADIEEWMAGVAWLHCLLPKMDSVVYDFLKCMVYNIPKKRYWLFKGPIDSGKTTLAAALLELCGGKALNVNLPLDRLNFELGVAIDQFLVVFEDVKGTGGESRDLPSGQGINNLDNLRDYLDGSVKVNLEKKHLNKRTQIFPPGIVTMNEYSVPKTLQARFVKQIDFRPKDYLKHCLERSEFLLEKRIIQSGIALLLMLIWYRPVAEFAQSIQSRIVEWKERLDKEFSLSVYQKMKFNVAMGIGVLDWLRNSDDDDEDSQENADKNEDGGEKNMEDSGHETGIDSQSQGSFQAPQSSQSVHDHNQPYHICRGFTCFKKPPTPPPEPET

[6] = inhibitors of intracellular T. cruzi replication, confirmation, NIH3T3 host cells, beta-gal luminescence (AID 2044); format: functional, cell-based;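 further: intracellular parasites grown in NIH/3T3 mouse fibroblasts as host cells; luminescent beta-galactosidase reporter signal from transgenic T. cruzi replicating inside host cells; inhibitors lower the luminescence signal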
[7] = cytotoxicity toward NIH3T3 fibroblasts, dose response, counter-screen, cell-based, ATP luminescence, mouse fibroblasts (AID 2010); format: functional;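 further: cells exposed to compound for about 90 hours before reading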
[8] = Luminescence Cell-Based Dose Confirmation HTS to Identify Activators of 5'UTR Stem-Loop Driven Alpha-Synuclein mRNA Translation in H4 Neuroglioblastoma Cells. [Related pubchem assays: 1829 (Project Summary), 1814 (Primary HTS)]; format: functional
[9] = Luminescence Cell-Based Dose Response HTS to Identify Activators of Luciferase Translation or Activity in H4 […] Cells. [Related pubchem assays: 1829 (Project Summary), 1814 (Primary HTS)]; format: functional
H4 = assay: Luminescence Cell-Based Dose Response HTS to Identify Activators of 5'UTR Stem-Loop Driven Prion Protein mRNA Translation in H4 Neuroglioblastoma Cells. [Related pubchem assays: 1829 (Project Summary), 1814 (Primary HTS)]; format: functional; conditions: Homo sapiens
Paired box protein Pax-8 = Paired box protein Pax-8 (Homo sapiens, UniProt Q06710); assay: inhibitors of PAX8-driven TPO luciferase reporter, dose response, RMG-I cells, cherry-pick (AID 687027); format: functional, cell-based;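 further: luciferase reporter driven by Pax8 target thyroperoxidase promoter measured by SteadyGlo luminescence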
Sequence of Paired box protein Pax-8 (Q06710 whole entry): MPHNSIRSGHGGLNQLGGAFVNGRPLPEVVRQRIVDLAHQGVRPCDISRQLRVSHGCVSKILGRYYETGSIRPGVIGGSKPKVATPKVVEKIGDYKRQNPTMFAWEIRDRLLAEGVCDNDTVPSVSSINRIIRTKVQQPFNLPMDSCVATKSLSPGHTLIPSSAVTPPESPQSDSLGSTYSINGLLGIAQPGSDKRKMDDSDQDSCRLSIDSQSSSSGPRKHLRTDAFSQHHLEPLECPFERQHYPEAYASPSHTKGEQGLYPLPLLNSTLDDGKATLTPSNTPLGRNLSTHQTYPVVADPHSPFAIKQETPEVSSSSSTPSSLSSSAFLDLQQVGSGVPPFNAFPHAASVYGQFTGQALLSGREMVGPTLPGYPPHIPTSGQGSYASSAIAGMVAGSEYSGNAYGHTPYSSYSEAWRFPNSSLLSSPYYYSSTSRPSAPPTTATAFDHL

[10] = NIH-3T3 fibroblast cytotoxicity, dose response, cytotoxicity control, cell-based, fluorescence, Alamar Blue, secondary assay (AID 2327); format: functional;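 further: NIH-3T3 mouse fibroblasts cultured with fluconazole at 8 µg/mL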
BJ [11] = assay: cytotoxicity toward BJ-TERT fibroblasts, dose response, cell-based, RAS-independent, luminescence (AID 1933); format: functional; conditions: Homo sapiens
BJ [12] = assay: cells; format: functional, cell-based; conditions: Homo sapiens
[13] = C. albicans growth with fluconazole, confirmation, fluorescence, retest (AID 2467); format: functional, cell-based
BJ [14] = assay: cytotoxicity toward BJ-TERT-LT-ST fibroblasts, dose response, cell-based, RAS-independent, luminescence (AID 1935); format: functional; conditions: Homo sapiens;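 further: BJ fibroblasts immortalized with TERT plus LT and ST oncogenes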
[15] = cytotoxicity toward DRD oncogenic fibroblasts, dose response, cell-based, non-viral oncogenic, luminescence (AID 1934); format: functional; conditions: Homo sapiens
[16] = target: Heat shock protein HSP 90-alpha (Homo sapiens, UniProt P07900); format: functional, organism-based
Protein skinhead-1 = target: T1, Protein skinhead-1 (Caenorhabditis elegans, UniProt P34707); format: functional
T1 sequence (P34707 whole entry): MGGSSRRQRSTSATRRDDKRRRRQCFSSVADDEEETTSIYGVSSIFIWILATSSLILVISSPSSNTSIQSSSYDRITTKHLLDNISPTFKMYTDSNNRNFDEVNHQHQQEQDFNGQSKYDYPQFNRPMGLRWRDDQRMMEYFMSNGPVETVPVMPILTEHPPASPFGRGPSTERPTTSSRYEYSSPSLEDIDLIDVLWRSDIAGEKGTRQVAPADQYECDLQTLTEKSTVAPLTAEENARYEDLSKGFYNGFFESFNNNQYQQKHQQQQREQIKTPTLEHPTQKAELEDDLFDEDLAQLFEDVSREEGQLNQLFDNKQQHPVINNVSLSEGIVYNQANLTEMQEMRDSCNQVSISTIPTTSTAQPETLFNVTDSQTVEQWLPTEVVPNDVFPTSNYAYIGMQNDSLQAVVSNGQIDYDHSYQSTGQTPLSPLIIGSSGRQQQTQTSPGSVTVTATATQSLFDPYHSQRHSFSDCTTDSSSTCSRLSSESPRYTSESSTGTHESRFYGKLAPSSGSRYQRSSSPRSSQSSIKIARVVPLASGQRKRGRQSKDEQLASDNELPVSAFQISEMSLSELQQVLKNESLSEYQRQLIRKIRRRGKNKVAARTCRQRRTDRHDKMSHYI

[17] = target: T2, DNA repair protein RAD52 homolog (Homo sapiens, UniProt P43351); format: functional, biochemical
T2 sequence (P43351 whole entry): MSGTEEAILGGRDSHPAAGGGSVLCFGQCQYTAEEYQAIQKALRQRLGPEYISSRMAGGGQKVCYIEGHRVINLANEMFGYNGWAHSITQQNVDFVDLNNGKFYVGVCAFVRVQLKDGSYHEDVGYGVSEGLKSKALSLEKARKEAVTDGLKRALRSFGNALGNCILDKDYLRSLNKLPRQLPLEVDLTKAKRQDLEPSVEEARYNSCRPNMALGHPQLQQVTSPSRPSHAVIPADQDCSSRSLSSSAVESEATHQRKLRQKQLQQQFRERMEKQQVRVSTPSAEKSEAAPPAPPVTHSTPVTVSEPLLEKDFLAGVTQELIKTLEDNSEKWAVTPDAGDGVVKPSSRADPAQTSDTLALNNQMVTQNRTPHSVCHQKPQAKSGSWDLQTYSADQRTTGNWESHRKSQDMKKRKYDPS

INS1 = assay: beta cell apoptosis inhibitors, cytokine rescue, dose response, luminescence, retest (AID 449756); format: functional, cell-based; conditions: Rattus norvegicus;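 further: cell death triggered by IL-1 beta plus TNF-alpha plus IFN-gamma mixture; protective hits raise ATP signal compared with cytokine alone wells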
[18] = P. falciparum Dd2 growth inhibitors, dose response, SYBR Green, cherry-picked samples (AID 1159567); format: functional, cell-based

CCc1nnc(NC(=O)CCC(=O)N2CCN(C3c4ccccc4-c4ccccc43)CC2)s1
IC50 (H9c2): 17.4 µM (active)

CCOc1ccccc1CNS(=O)(=O)c1c[nH]cn1
EC50 [1]: > 112 µM (not active) | EC50 [2]: > 112 µM (not active)

COc1ccccc1NC(=O)c1c(Nc2ccccc2F)sc(C(=O)Nc2cccc(Cl)c2)c1N
AC50 [3]: 1.16 µM (active)

CCC1CCCCN1Cc1c(O)ccc2c(=O)c(-c3ccccc3OC)coc12 (stereo not given)
EC50 (cells [4]): > 350 µM (not active) | EC50 (cells [5]): > 350 µM (not active)

CCn1cc(C(=O)N[C@@H](CCSC)C(=O)NCCCn2ccnc2)c(=O)c2cc3c(cc21)OCO3
EC50 [1]: > 112 µM (not active) | EC50 [2]: > 112 µM (not active)

CC1=CS/C(=C(/C#N)C(=O)N2CCOCC2)N1c1ccccc1
EC50 [1]: > 112 µM (not active) | EC50 [2]: > 112 µM (not active)

O=C(CCSc1ccc(Cl)cc1)N1CCN(c2ccc(O)cc2)CC1
IC50 (Large T antigen): 6.74 µM (active) | EC50 [6]: 0.169 µM (active) | EC50 [7]: 6.9 µM (active) | AC50 [3]: 2.51 µM (active)

CCC1(c2ccc(Cl)cc2)N=C(S)N(c2ccc(C)cc2)N1 (stereo not given)
EC50 [8]: 19.1 µM (active) | EC50 [9]: 11.2 µM (active) | EC50 (H4): 14.7 µM (inconclusive)

C=C(C)C(=O)OC1(C(F)(F)F)Oc2cc(C)ccc2NC1=O (stereo not given)
AC50 (Paired box protein Pax-8): 9.05 µM (active)

COc1ccc2occ(C(=O)c3cccs3)c2c1
EC50 [8]: 6.67 µM (active) | EC50 [9]: 13.3 µM (active) | EC50 (H4): 32.6 µM (active)

Cc1ccc(N2CC(=O)Nc3c(sc4nc(C)cc(C)c34)C2=O)cc1
EC50 (cells [4]): > 350 µM (not active) | EC50 (cells [5]): > 350 µM (not active)

COc1ccc(N(CC(=O)Nc2ccc3c(c2)OCO3)S(=O)(=O)c2ccccc2)c(OC)c1
IC50 (H9c2): > 79 µM (inactive)

COc1ccc(CC(NC(C)=O)C(=O)NC2CCN(C(=O)c3cccc(Cl)c3)CC2)cc1OC (stereo not given)
EC50 (cells [4]): > 350 µM (not active) | EC50 (cells [5]): > 350 µM (not active)

CCN=C(S)NNC(=O)c1cc(-c2ccc(OC)cc2)nc2ccccc12
EC50 [10]: > 160 µM (inactive) | EC50 (BJ [11]): 9.62 µM (active) | EC50 (BJ [12]): 14 µM (active) | EC50 [13]: > 38 µM (not active) | EC50 [1]: 0.107 µM (active) | EC50 [2]: 1.38 µM (active) | EC50 (BJ [14]): > 150 µM (not active) | EC50 [15]: 11 µM (active)

O=C(CCS(=O)(=O)c1ccccc1)Nc1ncc([N+](=O)[O-])s1
EC50 [10]: > 150 µM (inactive) | EC50 [13]: 0.746 µM (active)

CCc1nc(C)c(C(=O)N2CCCC(C(=O)Nc3cccc(-c4cccc(C)c4)c3)C2)o1 (stereo not given)
EC50 [8]: 8.19 µM (active) | EC50 [9]: 7.7 µM (active) | EC50 (H4): 16.3 µM (active)

Cc1ccc(O)c(-c2cc(-c3cccc(F)c3)[nH]n2)c1
AC50 [16]: 25.4 µM (active) | IC50 (Protein skinhead-1): > 100 µM (inactive)

COc1cc(CC(=O)Nc2ccc(Cl)c(C(F)(F)F)c2)cc(OC)c1OC
EC50 (cells [4]): > 350 µM (not active) | EC50 (cells [5]): > 350 µM (not active)

O=C(CSC1=NCCS1)N1CCc2ccccc21
EC50 [8]: 10.7 µM (active) | EC50 [9]: 45.7 µM (active) | EC50 (H4): 15.4 µM (active)

Cc1ccc2c(c1)C1CN(C)CCC1N2Sc1ccccc1[N+](=O)[O-] (stereo not given)
EC50 [10]: > 150 µM (inactive) | EC50 [13]: > 38 µM (not active)

CC1(C)C(=O)C(c2nc3ccccc3[nH]2)=C(N)N1c1ccccc1
EC50 [10]: 58.9 µM (active) | EC50 [13]: 5.1 µM (active)

O=C(Cn1c(S)nc2ccccc21)c1ccccc1
EC50 [1]: > 112 µM (not active) | EC50 [2]: > 112 µM (not active)

CSC1=NN=C(c2ccc(C(C)(C)C)cc2)NN1
EC50 [8]: 15.2 µM (active) | EC50 [9]: 36.5 µM (active) | EC50 (H4): 16.9 µM (active)

COC(=O)c1cnn2c(O)c(Cc3ccc(F)cc3Cl)c(C)nc12
EC50 [10]: > 150 µM (inactive) | EC50 [13]: 1.33 µM (active)

COc1ccc(CCNC(=O)c2cc(S(=O)(=O)N3CCOCC3)cn2C)cc1OC
EC50 [1]: > 112 µM (not active) | EC50 [2]: > 112 µM (not active)

Cc1ccc(Nc2cc(-n3cccn3)ncn2)c(C)c1
EC50 [8]: 0.12 µM (active) | EC50 [9]: 0.619 µM (active) | EC50 (H4): < 0.1 µM (active)

O=C1Cc2ccccc2Sc2ccc(Cl)cc21
EC50 [1]: > 112 µM (not active) | EC50 [2]: > 112 µM (not active)

O=C(NCc1cccnc1)C(=O)NCC1OCCN1S(=O)(=O)c1ccccc1 (stereo not given)
EC50 [1]: > 112 µM (not active) | EC50 [2]: > 112 µM (not active)

COc1ccc(-c2nnc3sc(-c4ccco4)nn23)cc1OC
IC50 (H9c2): > 79 µM (inactive)

O=C(N1CCOCC1)N1CCN(S(=O)(=O)N2CCOCC2)CC1
EC50 [1]: > 112 µM (not active) | EC50 [2]: > 112 µM (not active)

Cn1nc(C(=O)NC2CCCCC2)c2c1-c1ccccc1SC2
EC50 [8]: 13.4 µM (active) | EC50 [9]: 25.7 µM (active) | EC50 (H4): 12.2 µM (active)

CC(OC(=O)Cc1nnc(O)c2ccccc12)C(=O)Nc1cccc([N+](=O)[O-])c1 (stereo not given)
IC50 (H9c2): > 79 µM (inactive)

Cc1ccc(C(=O)NC(=S)NNC(=O)c2ccccc2[N+](=O)[O-])cc1
EC50 [10]: 18.8 µM (inconclusive) | EC50 [13]: > 38 µM (not active)

Cc1cc([N+](=O)[O-])ccc1NC(=O)CSc1nncn1-c1cccnc1
EC50 [1]: > 112 µM (not active) | EC50 [2]: > 112 µM (not active)

Cc1cccc(OCC(=O)Nc2ccc3c(c2)nc(CN2CCCCC2)n3C)c1
AC50 [17]: 20 µM (active)

COc1ccc(-c2cc(C(=O)N(C)Cc3nc(O)c4ccccc4n3)c3ccccc3n2)cc1OC
IC50 (H9c2): > 79 µM (inactive)

COC(=O)c1ccc2c(O)nc(COC(=O)c3[nH]c(C)c(C(C)=O)c3C)nc2c1
IC50 (H9c2): 7.05 µM (active)

COC(=O)c1ccc(Cn2nnc3c(O)nc(C4CCCN(S(=O)(=O)c5ccccc5)C4)nc32)cc1 (stereo not given)
IC50 (H9c2): 18.3 µM (active)

Cc1ccc(/N=C/c2cc(Cl)cc(Cl)c2O)nc1
IC50 (H9c2): 13.5 µM (active)

CCOC(=O)C1=c2s/c(=C\c3ccncc3)c(=O)n2C(N)=C(C(=O)OC)C1c1ccncc1 (stereo not given)
IC50 (H9c2): > 79 µM (inactive)

Cc1ccc(S(=O)(=O)Nc2ccc3c(c2)C(=O)N([C@@H](C)CO)C[C@@H](C)[C@H](CN(C)Cc2ccc(Cl)c(Cl)c2)OCCCC[C@@H](C)O3)cc1
AC50 (Paired box protein Pax-8): 7.92 µM (active)

N#CCC(=O)N/N=C/c1ccc(SCC(=O)Nc2ccccc2)o1
EC50 (cells [4]): > 350 µM (not active) | EC50 (cells [5]): > 350 µM (not active)

C/C(N)=C(/C#N)C(=O)COC(=O)c1cc(-c2ccc(C)cc2)nc2ccccc12
AC50 [3]: 17.4 µM (active) | AC50 (INS1): > 260 µM (inactive)

COc1ccc(C#Cc2ccc3c(c2)[C@H]2[C@H](CCN2C(=O)c2ccccn2)[C@H](CO)N3)cc1
AC50 [18]: 5.61 µM (active)

C[C@@H](C(=O)N(C)C[C@@H]1OCc2ccccc2-c2c(n(C)c3ccccc23)C(=O)N([C@@H](C)CO)C[C@@H]1C)c1ccccc1
AC50 [18]: 6.3 µM (active)
